Tests used:
Assay in all cases: KinaseProfiler off-target kinase profiling
Assay type in all cases: biochemical
Details in all cases: 10 μM, ATP near Km
ALK = target: T1, ALK (Homo sapiens, UniProt Q9UM73)
T1 construct: purchased Millipore, Inc. (KinaseProfiler service)
Description: (§1) A representative compound of the invention (Example 20) was tested for off-target kinase activity at a concentration of 10 μM by Millipore, Inc. in their KinaseProfiler™ service against all the kinases available in their full kinase panel. The compound was run in duplicate at a concentration of ATP near the Km for each individual kinase according to Millipore's specifications. The results are shown in Table B. Data are reported as percent of control (POC) and are the average of the two replicates.

ALK4 = target: T2, ALK4 (Homo sapiens, UniProt P36896)
T2 construct: purchased Millipore, Inc. (KinaseProfiler service)
Description: as §1

BTK = target: T3, BTK (Homo sapiens, UniProt Q06187)
T3 construct: purchased Millipore, Inc. (KinaseProfiler service)
Description: as §1

BrSK2 = target: T4, BrSK2 (Homo sapiens, UniProt Q8IWQ3)
T4 construct: purchased Millipore, Inc. (KinaseProfiler service)
Description: as §1

CAMK2g = target: T5, CAMK2g (Homo sapiens, UniProt Q13555)
T5 construct: purchased Millipore, Inc. (KinaseProfiler service)
Description: as §1

CDK6/cyclinD3 = target: T6, CDK6/cyclinD3 (Homo sapiens, UniProt Q00534)
T6 construct: purchased Millipore, Inc. (KinaseProfiler service)
Description: as §1

CK1delta = target: T7, CK1delta (Homo sapiens, UniProt P48730)
T7 construct: purchased Millipore, Inc. (KinaseProfiler service)
Description: as §1

CK1gamma2 = target: T8, CK1gamma2 (Homo sapiens, UniProt P78368)
T8 construct: purchased Millipore, Inc. (KinaseProfiler service)
Description: as §1

DAPK3 = target: T9, DAPK3 (Homo sapiens, UniProt O43293)
T9 construct: purchased Millipore, Inc. (KinaseProfiler service)
Description: as §1

DCAMKL2 = target: T10, DCAMKL2 (Homo sapiens, UniProt Q8N568)
T10 construct: purchased Millipore, Inc. (KinaseProfiler service)
Description: as §1

EphA2 = target: T11, EphA2 (Homo sapiens, UniProt P29317)
T11 construct: purchased Millipore, Inc. (KinaseProfiler service)
Description: as §1

EphB4 = target: T12, EphB4 (Homo sapiens, UniProt P54760)
T12 construct: purchased Millipore, Inc. (KinaseProfiler service)
Description: as §1

FGFR2 = target: T13, FGFR2 (Homo sapiens, UniProt P21802)
T13 construct: purchased Millipore, Inc. (KinaseProfiler service)
Description: as §1

Fer = target: T14, Fer (Homo sapiens, UniProt P16591)
T14 construct: purchased Millipore, Inc. (KinaseProfiler service)
Description: as §1

Fgr = target: T15, Fgr (Homo sapiens, UniProt P09769)
T15 construct: purchased Millipore, Inc. (KinaseProfiler service)
Description: as §1

Fms = target: T16, Fms (Homo sapiens, UniProt P07333)
T16 construct: purchased Millipore, Inc. (KinaseProfiler service)
Description: as §1

IKKalpha = target: T17, IKKalpha (Homo sapiens, UniProt O15111)
T17 construct: purchased Millipore, Inc. (KinaseProfiler service)
Description: as §1

IKKbeta = target: T18, IKKbeta (Homo sapiens, UniProt O14920)
T18 construct: purchased Millipore, Inc. (KinaseProfiler service)
Description: as §1

IRAK4 = target: T19, IRAK4 (Homo sapiens, UniProt Q9NWZ3)
T19 construct: purchased Millipore, Inc. (KinaseProfiler service)
Description: as §1

JNK2alpha2 = target: T20, JNK2alpha2 (Homo sapiens, UniProt P45984)
T20 construct: purchased Millipore, Inc. (KinaseProfiler service)
Description: as §1

MAPKAP-K2 = target: T21, MAPKAP-K2 (Homo sapiens, UniProt P49137)
T21 construct: purchased Millipore, Inc. (KinaseProfiler service)
Description: as §1

MAPKAP-K3 = target: T22, MAPKAP-K3 (Homo sapiens, UniProt Q16644)
T22 construct: purchased Millipore, Inc. (KinaseProfiler service)
Description: as §1

MEK1 = target: T23, MEK1 (Homo sapiens, UniProt Q02750)
T23 construct: purchased Millipore, Inc. (KinaseProfiler service)
Description: as §1

MINK = target: T24, MINK (Homo sapiens, UniProt Q8N4C8)
T24 construct: purchased Millipore, Inc. (KinaseProfiler service)
Description: as §1

MKNK2 = target: T25, MKNK2 (Homo sapiens, UniProt Q9HBH9)
T25 construct: purchased Millipore, Inc. (KinaseProfiler service)
Description: as §1

MSSK1 = target: T26, MSSK1 (Homo sapiens, UniProt Q9UPE1)
T26 construct: purchased Millipore, Inc. (KinaseProfiler service)
Description: as §1

MYLK = target: T27, MYLK (Homo sapiens, UniProt Q15746)
T27 construct: purchased Millipore, Inc. (KinaseProfiler service)
Description: as §1

PKCbetaI = target: T28, PKCbetaI (Homo sapiens, UniProt P05771)
T28 construct: purchased Millipore, Inc. (KinaseProfiler service)
Description: as §1

PKCbetaII = target: T29, PKCbetaII (Homo sapiens, UniProt P05771)
T29 construct: purchased Millipore, Inc. (KinaseProfiler service)
Description: as §1

PKCepsilon = target: T30, PKCepsilon (Homo sapiens, UniProt Q02156)
T30 construct: purchased Millipore, Inc. (KinaseProfiler service)
Description: as §1

PRKG1beta = target: T31, PRKG1beta (Homo sapiens, UniProt Q13976)
T31 construct: purchased Millipore (KinaseProfiler service)
Description: as §1

Pim-1 = target: T32, Pim-1 (Homo sapiens, UniProt P11309)
T32 construct: purchased Millipore, Inc. (KinaseProfiler service)
Description: as §1

ROCK-I = target: T33, ROCK-I (Homo sapiens, UniProt Q13464)
T33 construct: purchased Millipore (KinaseProfiler service)
Description: as §1

Rsk3 = target: T34, Rsk3 (Homo sapiens, UniProt Q15349)
T34 construct: purchased Millipore (KinaseProfiler service)
Description: as §1

SGK3 = target: T35, SGK3 (Homo sapiens, UniProt Q96BR1)
T35 construct: purchased Millipore, Inc. (KinaseProfiler service)
Description: as §1

SRPK2 = target: T36, SRPK2 (Homo sapiens, UniProt P78362)
T36 construct: purchased Millipore, Inc. (KinaseProfiler service)
Description: as §1

TAO1 = target: T37, TAO1 (Homo sapiens, UniProt Q7L7X3)
T37 construct: purchased Millipore, Inc. (KinaseProfiler service)
Description: as §1

TBK1 = target: T38, TBK1 (Homo sapiens, UniProt Q9UHD2)
T38 construct: purchased Millipore, Inc. (KinaseProfiler service)
Description: as §1

Txk = target: T39, Txk (Homo sapiens, UniProt P42681)
T39 construct: purchased Millipore, Inc. (KinaseProfiler service)
Description: as §1

ZAP-70 = target: T40, ZAP-70 (Homo sapiens, UniProt P43403)
T40 construct: purchased Millipore, Inc. (KinaseProfiler service)
Description: as §1

p38alpha = target: T41, p38alpha (Homo sapiens, UniProt Q16539)
T41 construct: purchased Millipore, Inc. (KinaseProfiler service)
Description: as §1

T1 sequence (Q9UM73 19-1620): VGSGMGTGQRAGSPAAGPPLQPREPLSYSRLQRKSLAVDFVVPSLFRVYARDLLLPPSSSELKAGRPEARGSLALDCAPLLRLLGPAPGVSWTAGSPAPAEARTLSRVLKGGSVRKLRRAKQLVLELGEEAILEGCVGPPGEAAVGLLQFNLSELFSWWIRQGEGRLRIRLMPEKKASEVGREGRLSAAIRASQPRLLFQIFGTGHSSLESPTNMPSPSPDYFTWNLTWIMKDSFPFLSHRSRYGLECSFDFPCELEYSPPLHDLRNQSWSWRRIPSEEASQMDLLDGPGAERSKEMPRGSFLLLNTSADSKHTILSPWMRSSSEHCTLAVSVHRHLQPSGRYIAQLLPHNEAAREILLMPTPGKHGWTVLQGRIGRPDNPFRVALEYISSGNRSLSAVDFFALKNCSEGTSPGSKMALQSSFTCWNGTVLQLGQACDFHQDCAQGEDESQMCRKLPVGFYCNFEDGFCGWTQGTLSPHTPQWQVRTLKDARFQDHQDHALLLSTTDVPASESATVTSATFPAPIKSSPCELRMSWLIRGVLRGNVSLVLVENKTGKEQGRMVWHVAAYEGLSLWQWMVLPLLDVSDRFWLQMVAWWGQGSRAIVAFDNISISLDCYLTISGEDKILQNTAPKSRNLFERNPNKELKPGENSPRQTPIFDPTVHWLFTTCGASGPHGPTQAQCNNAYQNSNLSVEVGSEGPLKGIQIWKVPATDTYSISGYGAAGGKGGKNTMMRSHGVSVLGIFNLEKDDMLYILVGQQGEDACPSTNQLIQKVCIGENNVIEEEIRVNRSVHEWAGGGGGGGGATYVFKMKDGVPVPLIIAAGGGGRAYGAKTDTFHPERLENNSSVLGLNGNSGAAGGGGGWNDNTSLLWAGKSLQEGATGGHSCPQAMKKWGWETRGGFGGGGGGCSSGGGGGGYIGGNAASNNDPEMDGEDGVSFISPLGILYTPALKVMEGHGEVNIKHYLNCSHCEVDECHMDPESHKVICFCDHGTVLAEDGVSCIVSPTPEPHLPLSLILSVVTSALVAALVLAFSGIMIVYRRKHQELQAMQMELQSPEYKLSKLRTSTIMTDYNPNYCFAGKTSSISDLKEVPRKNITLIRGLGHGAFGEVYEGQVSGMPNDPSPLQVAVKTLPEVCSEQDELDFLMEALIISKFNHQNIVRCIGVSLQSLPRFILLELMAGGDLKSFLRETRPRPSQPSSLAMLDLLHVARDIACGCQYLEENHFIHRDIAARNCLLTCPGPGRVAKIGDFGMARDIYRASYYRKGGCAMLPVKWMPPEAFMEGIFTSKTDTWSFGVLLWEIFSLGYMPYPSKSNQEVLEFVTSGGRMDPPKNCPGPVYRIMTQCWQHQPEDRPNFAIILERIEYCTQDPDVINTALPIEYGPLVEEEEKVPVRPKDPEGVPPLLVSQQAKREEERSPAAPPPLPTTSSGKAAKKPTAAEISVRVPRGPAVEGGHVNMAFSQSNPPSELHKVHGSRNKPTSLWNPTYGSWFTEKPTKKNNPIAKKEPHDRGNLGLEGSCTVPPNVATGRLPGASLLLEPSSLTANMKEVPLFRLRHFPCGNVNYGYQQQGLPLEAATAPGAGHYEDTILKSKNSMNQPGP
T11 sequence (P29317 24-976): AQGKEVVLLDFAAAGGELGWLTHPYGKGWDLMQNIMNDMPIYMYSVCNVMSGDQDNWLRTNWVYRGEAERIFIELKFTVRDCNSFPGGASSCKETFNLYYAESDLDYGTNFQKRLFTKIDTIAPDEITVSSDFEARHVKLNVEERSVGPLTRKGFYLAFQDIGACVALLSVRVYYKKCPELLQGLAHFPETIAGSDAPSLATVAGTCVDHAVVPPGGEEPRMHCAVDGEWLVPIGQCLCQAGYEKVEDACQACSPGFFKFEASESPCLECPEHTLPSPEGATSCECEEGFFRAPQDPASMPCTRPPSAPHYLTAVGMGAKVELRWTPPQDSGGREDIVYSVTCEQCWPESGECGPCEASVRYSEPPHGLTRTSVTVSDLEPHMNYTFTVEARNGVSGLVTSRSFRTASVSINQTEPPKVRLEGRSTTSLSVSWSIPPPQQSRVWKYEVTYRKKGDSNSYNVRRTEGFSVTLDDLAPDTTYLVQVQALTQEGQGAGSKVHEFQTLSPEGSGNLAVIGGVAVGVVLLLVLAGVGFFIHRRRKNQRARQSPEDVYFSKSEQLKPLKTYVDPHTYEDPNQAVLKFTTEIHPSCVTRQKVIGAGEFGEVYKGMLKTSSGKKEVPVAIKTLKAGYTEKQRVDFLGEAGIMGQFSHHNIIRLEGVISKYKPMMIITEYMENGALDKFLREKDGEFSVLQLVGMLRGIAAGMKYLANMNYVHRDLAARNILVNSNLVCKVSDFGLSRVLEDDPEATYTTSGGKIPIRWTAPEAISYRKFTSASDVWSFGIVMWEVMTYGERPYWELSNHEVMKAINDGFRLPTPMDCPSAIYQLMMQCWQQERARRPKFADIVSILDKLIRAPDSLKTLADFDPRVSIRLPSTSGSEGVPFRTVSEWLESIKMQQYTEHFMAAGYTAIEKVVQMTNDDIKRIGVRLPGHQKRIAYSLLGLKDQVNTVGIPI
T26 sequence (Q9UPE1 whole entry): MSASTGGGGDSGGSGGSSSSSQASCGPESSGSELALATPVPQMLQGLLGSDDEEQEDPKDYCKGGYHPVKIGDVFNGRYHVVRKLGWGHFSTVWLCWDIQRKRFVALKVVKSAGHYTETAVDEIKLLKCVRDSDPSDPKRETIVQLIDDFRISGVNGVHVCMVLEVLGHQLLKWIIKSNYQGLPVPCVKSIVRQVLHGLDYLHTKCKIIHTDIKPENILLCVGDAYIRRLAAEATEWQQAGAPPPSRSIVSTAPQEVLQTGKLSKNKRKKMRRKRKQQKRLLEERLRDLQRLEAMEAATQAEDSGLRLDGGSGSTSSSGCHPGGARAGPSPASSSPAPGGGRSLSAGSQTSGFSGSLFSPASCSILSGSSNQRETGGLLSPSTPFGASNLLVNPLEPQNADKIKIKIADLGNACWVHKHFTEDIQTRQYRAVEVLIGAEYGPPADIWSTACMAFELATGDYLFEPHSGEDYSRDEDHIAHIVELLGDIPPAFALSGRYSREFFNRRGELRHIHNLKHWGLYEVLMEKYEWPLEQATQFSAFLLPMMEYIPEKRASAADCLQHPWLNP
T2 sequence (P36896 24-505): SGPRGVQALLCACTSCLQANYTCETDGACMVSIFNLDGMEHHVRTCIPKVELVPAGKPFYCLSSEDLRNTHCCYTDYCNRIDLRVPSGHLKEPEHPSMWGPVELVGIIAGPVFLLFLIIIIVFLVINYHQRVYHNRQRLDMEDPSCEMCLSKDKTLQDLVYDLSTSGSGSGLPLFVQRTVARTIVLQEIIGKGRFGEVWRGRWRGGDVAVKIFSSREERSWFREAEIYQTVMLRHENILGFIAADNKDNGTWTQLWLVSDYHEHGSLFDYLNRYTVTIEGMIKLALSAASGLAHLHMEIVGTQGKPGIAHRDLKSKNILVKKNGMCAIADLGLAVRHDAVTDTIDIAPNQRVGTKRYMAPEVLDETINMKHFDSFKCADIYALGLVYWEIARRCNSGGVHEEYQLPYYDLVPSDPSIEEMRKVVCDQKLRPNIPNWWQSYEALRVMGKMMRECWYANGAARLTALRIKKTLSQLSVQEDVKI
T7 sequence (P48730 whole entry): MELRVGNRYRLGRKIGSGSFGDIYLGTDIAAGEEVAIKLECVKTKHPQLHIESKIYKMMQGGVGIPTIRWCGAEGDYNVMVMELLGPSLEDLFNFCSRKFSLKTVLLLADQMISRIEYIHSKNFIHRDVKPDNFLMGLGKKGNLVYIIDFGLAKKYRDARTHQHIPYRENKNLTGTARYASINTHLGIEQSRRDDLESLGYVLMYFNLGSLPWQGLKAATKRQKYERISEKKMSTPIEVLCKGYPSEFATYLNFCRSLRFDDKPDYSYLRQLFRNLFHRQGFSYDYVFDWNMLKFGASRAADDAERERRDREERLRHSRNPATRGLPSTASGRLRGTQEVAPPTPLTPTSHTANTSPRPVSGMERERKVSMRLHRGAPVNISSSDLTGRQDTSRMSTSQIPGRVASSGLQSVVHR
T21 sequence (P49137 whole entry): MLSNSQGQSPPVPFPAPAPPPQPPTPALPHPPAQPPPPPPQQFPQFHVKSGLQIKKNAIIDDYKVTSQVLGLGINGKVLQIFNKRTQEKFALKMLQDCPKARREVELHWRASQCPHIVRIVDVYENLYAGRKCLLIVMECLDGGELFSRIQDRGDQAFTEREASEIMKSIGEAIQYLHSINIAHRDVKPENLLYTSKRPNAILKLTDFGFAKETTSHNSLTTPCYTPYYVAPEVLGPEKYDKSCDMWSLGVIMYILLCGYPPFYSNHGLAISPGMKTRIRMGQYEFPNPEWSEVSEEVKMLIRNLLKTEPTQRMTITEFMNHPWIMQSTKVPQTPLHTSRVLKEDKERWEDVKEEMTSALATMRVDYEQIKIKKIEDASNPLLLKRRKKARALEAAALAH
T22 sequence (Q16644 whole entry): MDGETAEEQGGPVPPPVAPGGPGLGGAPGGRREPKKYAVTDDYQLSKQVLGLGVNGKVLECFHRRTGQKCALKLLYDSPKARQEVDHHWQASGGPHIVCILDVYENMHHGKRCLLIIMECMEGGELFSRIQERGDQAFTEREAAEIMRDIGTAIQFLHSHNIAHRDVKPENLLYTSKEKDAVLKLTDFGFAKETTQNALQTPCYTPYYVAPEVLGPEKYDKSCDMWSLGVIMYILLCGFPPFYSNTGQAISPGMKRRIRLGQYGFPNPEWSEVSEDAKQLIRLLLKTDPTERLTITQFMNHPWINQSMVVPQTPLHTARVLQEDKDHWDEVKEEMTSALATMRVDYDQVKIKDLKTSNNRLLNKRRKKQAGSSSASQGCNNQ

For `COCCN1C[C@@H](NC(=O)Nc2c(-c3ccccc3)nc3c(C)nccn23)[C@H](c2ccc(F)c(F)c2)C1` [Example 20, 1-((3S,4R)-4-(3,4-difluorophenyl)-1-(2-methoxyethyl)pyrrolidin-3-yl)-3-(8-methyl-2-phenylimidazo[1,2-a]pyrazin-3-yl)urea], the “Avg. POC” value (ALK) was 114 POC, the “Avg. POC” value (ALK4) was 98.5 POC and the “Avg. POC” value (BTK) was 112.5 POC. The “Avg. POC” value (BrSK2) was 116 POC, the “Avg. POC” value (CAMK2g) was 113 POC and the “Avg. POC” value (CDK6/cyclinD3) was 103.5 POC. For the same molecule, the “Avg. POC” value (CK1delta) was 93 POC, the “Avg. POC” value (CK1gamma2) was 110 POC and the “Avg. POC” value (DAPK3) was 103 POC. The “Avg. POC” value (DCAMKL2) was 126.5 POC, the “Avg. POC” value (EphA2) was 107.5 POC and the “Avg. POC” value (EphB4) was 102 POC. For the same molecule, the “Avg. POC” value (FGFR2) was 106 POC, the “Avg. POC” value (Fer) was 91.5 POC and the “Avg. POC” value (Fgr) was 121 POC. The “Avg. POC” value (Fms) was 87.5 POC, the “Avg. POC” value (IKKalpha) was 121 POC and the “Avg. POC” value (IKKbeta) was 107.5 POC. For the same molecule, the “Avg. POC” value (IRAK4) was 124 POC, the “Avg. POC” value (JNK2alpha2) was 107.5 POC and the “Avg. POC” value (MAPKAP-K2) was 106.5 POC. The “Avg. POC” value (MAPKAP-K3) was 105 POC, the “Avg. POC” value (MEK1) was 111 POC and the “Avg. POC” value (MINK) was 99 POC. For the same molecule, the “Avg. POC” value (MKNK2) was 103 POC, the “Avg. POC” value (MSSK1) was 108.5 POC and the “Avg. POC” value (MYLK) was 110 POC. For the same molecule, the “Avg. POC” value (PKCbetaI) was 101 POC, the “Avg. POC” value (PKCbetaII) was 106 POC and the “Avg. POC” value (PKCepsilon) was 107.5 POC. For the same molecule, the “Avg. POC” value (PRKG1beta) was 124 POC, the “Avg. POC” value (Pim-1) was 105 POC and the “Avg. POC” value (ROCK-I) was 95.5 POC. The “Avg. POC” value (Rsk3) was 107.5 POC, the “Avg. POC” value (SGK3) was 109 POC and the “Avg. POC” value (SRPK2) was 100 POC. The “Avg. POC” value (TAO1) was 106 POC, the “Avg. POC” value (TBK1) was 114 POC and the “Avg. POC” value (Txk) was 130 POC. The “Avg. POC” value (ZAP-70) was 102.5 POC and the “Avg. POC” value (p38alpha) was 97.5 POC.
